{"source": "ChEMBL document CHEMBL1201862", "about": "“PubChem BioAssay data set” (2004)", "key": {"[1]": {"molecular_target": "FAD-linked sulfhydryl oxidase ALR (Homo sapiens, UniProt P55789)", "sequence (P55789 whole entry)": "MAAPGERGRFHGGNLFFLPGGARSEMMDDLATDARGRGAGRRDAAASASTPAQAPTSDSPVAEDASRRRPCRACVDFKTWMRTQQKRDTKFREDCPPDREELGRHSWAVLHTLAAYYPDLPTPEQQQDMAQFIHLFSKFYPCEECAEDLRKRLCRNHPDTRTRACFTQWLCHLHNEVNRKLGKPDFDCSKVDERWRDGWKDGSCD", "test": "ALR-catalysed DTT oxidation blockers – biochemical, H2O2 detection, luminescence, cherry-pick, dose response (AID 493248)"}, "[2]": {"molecular_target": "Voltage-dependent T-type calcium channel subunit alpha-1H (Homo sapiens, UniProt O95180)", "sequence (O95180 whole entry)": "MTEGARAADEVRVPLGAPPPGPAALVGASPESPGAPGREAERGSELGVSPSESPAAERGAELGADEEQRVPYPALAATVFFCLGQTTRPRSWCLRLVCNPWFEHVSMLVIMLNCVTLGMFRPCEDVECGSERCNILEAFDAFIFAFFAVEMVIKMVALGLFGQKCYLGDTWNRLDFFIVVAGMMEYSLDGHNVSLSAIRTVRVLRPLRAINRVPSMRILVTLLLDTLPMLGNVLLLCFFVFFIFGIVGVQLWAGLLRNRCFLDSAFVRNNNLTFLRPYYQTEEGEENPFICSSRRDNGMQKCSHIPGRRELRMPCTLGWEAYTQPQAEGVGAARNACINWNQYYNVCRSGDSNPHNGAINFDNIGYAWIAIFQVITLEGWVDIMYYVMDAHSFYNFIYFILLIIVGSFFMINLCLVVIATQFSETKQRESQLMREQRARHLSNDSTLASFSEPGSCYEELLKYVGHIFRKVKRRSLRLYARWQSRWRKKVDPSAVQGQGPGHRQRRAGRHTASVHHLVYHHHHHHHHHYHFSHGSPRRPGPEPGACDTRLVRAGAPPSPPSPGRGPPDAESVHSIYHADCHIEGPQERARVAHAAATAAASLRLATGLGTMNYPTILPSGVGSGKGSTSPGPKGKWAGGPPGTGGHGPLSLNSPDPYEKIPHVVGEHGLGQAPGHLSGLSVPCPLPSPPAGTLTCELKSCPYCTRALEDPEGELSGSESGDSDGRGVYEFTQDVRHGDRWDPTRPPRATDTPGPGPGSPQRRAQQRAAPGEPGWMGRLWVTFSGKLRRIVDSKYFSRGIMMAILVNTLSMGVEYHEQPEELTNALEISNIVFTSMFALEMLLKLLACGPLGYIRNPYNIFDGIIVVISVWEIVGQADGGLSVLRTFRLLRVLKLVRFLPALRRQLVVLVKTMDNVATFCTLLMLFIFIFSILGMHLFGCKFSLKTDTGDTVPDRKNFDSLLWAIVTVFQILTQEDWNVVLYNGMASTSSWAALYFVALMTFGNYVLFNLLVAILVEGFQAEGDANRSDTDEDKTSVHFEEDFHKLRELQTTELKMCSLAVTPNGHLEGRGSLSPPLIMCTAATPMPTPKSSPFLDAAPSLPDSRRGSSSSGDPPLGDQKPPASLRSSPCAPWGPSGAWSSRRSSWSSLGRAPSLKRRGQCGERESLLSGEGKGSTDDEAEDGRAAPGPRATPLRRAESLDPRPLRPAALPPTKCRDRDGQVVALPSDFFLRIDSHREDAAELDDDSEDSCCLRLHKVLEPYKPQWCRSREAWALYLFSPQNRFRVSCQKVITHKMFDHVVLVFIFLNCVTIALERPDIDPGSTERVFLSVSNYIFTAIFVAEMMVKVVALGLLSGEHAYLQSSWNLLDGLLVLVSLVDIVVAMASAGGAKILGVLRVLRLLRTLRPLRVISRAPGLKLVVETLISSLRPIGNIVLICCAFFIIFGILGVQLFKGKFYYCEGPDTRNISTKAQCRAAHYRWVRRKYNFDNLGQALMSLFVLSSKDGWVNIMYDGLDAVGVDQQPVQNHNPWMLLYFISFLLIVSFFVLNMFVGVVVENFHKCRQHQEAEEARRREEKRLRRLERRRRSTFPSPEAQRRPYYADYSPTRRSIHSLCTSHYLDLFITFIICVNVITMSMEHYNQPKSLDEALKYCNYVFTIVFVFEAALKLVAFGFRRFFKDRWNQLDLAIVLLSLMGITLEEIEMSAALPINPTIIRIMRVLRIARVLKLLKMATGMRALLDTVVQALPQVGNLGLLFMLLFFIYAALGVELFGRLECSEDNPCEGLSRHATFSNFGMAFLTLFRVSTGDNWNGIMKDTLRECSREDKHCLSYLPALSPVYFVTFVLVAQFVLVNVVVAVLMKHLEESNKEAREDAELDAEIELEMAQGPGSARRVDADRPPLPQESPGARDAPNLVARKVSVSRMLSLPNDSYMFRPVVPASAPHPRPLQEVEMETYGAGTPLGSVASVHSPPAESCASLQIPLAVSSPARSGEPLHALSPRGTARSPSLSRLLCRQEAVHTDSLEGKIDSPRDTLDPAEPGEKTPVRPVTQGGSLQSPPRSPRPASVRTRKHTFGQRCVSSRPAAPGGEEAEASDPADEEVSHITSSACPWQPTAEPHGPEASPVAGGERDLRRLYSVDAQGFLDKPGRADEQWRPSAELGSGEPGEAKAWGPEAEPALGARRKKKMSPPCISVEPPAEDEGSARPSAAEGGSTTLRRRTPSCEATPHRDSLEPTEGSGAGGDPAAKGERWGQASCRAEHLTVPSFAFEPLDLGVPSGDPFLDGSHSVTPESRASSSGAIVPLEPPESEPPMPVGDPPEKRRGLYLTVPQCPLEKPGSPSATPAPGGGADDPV", "type": "functional"}, "[3]": {"molecular_target": "T1, Polyadenylate-binding protein 1 (Homo sapiens, UniProt P11940)", "T1 sequence (P11940 whole entry, the tested form may be a part)": "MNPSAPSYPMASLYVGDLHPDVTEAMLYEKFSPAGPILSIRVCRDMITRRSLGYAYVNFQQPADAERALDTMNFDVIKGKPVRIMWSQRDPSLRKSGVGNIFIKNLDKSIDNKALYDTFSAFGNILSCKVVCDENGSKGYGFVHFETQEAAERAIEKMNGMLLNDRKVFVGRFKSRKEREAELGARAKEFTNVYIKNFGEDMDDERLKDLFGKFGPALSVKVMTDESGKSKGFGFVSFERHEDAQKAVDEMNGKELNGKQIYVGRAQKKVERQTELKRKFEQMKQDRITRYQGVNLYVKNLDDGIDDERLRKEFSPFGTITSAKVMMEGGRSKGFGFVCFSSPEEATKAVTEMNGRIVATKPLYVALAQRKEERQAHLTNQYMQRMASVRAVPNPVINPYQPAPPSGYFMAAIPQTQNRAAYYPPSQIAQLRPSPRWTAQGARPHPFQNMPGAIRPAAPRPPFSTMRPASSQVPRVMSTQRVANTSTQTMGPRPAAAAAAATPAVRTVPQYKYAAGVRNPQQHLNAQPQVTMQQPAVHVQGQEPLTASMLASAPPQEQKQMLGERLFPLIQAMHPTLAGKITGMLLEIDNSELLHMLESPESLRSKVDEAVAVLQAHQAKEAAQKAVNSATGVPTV", "test": "MLLE domain peptide-binding blockers, IC50 – biochemical, fluorescence polarization, FITC-PAM2 peptide, dose response (AID 602259)", "type": "functional", "details": "read-out: IC50_Mean"}, "[4]": {"molecular_target": "T1, Polyadenylate-binding protein 1", "test": "MLLE binding blockers, Cy5 peptide tracer – biochemical, fluorescence polarization, Cy5-PAM2 peptide, secondary, miRNA deadenylation inhibitor project, dose response (AID 602260)", "type": "functional", "details": "read-out: IC50_Mean"}, "[5]": {"system": "INS1", "test": "INS-1E survival protection against cytokine death – cell-based, luminescence, retest, dose response (AID 449756);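 note: cell death triggered by IL-1 beta plus TNF-alpha plus IFN-gamma mixture; protective hits raise ATP signal compared with cytokine alone wells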", "type": "functional", "details": "Rattus norvegicus"}, "[6]": {"test": "microbe, parasite or virus in culture", "type": "functional", "details": "Mycobacterium tuberculosis"}, "[7]": {"molecular_target": "T2, Heat shock factor protein 1 (Mus musculus, UniProt P38532)", "T2 sequence (P38532 whole entry)": "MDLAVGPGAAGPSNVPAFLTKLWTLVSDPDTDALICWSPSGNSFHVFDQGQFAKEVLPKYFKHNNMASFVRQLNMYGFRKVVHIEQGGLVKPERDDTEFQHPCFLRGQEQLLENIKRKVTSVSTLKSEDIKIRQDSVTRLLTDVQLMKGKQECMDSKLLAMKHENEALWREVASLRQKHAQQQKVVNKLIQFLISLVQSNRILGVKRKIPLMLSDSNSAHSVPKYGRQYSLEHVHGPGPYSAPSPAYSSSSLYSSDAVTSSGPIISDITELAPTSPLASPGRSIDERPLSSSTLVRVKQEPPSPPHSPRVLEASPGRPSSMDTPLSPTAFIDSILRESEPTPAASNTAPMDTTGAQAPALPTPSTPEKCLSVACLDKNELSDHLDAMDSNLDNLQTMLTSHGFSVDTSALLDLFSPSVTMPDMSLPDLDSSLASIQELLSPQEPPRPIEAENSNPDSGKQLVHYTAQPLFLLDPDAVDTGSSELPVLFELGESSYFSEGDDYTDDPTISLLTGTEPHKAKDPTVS", "test": "decrease of HSF1-responsive luciferase luminescence – cell-based, NIH3T3, dose retest, confirmation (AID 2382);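 note: NIH3T3 fibroblasts with HSF1-driven luciferase reporter stressed by proteasome inhibitor MG132; luminescence from HSF1-driven luciferase expression after 8 hours of MG132 stress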", "type": "functional"}, "[8]": {"molecular_target": "T3, Cytochrome P450 1A2 (Homo sapiens, UniProt P05177)", "T3 sequence (P05177 whole entry)": "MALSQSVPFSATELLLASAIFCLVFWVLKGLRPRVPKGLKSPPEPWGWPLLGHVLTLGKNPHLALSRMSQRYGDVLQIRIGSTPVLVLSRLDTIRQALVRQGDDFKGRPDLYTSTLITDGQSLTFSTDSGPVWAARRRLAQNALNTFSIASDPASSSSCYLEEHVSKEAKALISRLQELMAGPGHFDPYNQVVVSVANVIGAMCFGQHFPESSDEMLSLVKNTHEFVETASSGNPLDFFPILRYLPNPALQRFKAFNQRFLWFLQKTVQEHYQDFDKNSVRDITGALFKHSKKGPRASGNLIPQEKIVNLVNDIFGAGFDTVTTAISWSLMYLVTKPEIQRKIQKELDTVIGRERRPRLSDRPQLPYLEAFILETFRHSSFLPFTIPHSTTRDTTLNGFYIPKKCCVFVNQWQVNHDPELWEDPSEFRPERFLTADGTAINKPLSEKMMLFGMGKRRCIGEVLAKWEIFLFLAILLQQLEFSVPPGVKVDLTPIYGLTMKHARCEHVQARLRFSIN"}, "[9]": {"system": "H9c2", "test": "cells", "type": "functional, cell-based", "details": "Rattus norvegicus, H9c2, Myocardium"}, "[10]": {"system": "H4", "test": "Luminescence Cell-Based Dose Response HTS to Identify Activators of 5'UTR Stem-Loop Driven Prion Protein mRNA Translation in H4 Neuroglioblastoma Cells. [Related pubchem assays: 1829 (Project Summary), 1814 (Primary HTS)]", "type": "functional", "details": "Homo sapiens"}, "[11]": {"test": "Luminescence Cell-Based Dose Confirmation HTS to Identify Activators of 5'UTR Stem-Loop Driven Alpha-Synuclein mRNA Translation in H4 Neuroglioblastoma Cells. [Related pubchem assays: 1829 (Project Summary), 1814 (Primary HTS)]", "type": "functional"}, "[12]": {"test": "Luminescence Cell-Based Dose Response HTS to Identify Activators of Luciferase Translation or Activity in H4 […] Cells. [Related pubchem assays: 1829 (Project Summary), 1814 (Primary HTS)]", "type": "functional"}, "[13]": {"test": "P. falciparum Dd2 growth inhibitors, dose response, SYBR Green, cherry-picked samples (AID 1159567)", "type": "functional, cell-based"}, "[14]": {"molecular_target": "Paired box protein Pax-8 (Homo sapiens, UniProt Q06710)", "sequence (Q06710 whole entry)": "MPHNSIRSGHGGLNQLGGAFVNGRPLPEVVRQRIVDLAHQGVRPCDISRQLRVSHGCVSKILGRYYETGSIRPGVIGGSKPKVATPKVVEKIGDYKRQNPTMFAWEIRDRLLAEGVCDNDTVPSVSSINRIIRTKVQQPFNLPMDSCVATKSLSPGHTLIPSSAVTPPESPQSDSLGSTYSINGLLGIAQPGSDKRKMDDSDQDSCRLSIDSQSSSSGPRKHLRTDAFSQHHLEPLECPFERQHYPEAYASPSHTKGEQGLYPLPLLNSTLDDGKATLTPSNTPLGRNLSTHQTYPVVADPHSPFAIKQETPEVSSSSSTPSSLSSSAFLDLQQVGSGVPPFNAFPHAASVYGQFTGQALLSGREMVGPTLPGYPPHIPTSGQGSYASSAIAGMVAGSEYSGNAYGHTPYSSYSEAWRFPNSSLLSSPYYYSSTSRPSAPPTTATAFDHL", "test": "PAX8 transcriptional activity inhibition in RMG-I – RMG-I cells, luciferase, cherry-pick, dose response (AID 687027);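 note: luciferase reporter driven by Pax8 target thyroperoxidase promoter measured by SteadyGlo luminescence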", "type": "functional, cell-based"}, "[15]": {"test": "OVCAR8 cell viability loss – plate reader, dry powder samples, PAX8 project, dose response (AID 743197)", "type": "functional, cell-based", "details": "OVCAR-8"}, "[16]": {"system": "Streptococcus sp. 'group A'", "test": "Streptococcus pyogenes SK(-)GAS viability under kanamycin – luminescence, BacTiterGlo, confirmation, counter-screen for streptokinase expression inhibitor project, dose response (AID 1900)", "type": "functional, organism-based"}, "[17]": {"system": "Streptococcus", "test": "GAS UMAA2166 growth inhibition – luminescence, BacTiterGlo, counter-screen for streptokinase expression inhibitor project, dose response (AID 1915);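 note: potency for reduction of bacterial viability or growth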", "type": "functional, organism-based"}, "[18]": {"test": "fluconazole-exposed Candida albicans growth modulators – fluorescence, retest, confirmation (AID 2467)", "type": "functional, cell-based"}, "[19]": {"test": "NIH-3T3 fibroblast cytotoxicity, dose response, cytotoxicity control, cell-based, fluorescence, Alamar Blue, secondary assay (AID 2327);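 note: NIH-3T3 mouse fibroblasts cultured with fluconazole at 8 µg/mL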", "type": "functional"}}, "note": "Activity calls are given as the source filed them."}
{"smiles": "Oc1ccccc1N1CCN(c2nnnn2-c2ccccc2)CC1", "values": [{"measurement": "AC50", "setting": "[1]", "result": "7.83 µM (active)"}]}
{"smiles": "COc1cccc(N2CCN(C3CC(=O)N(c4ccc(Cl)c(Cl)c4)C3=O)CC2)c1", "note": "(stereo unspecified)", "values": [{"measurement": "EC50", "setting": "[2]", "result": "6.84 µM (active)"}]}
{"smiles": "CC(=O)Nc1ccc(S(=O)(=O)NC(C)C(=O)NC(C)c2ccccc2)cc1", "note": "(stereo unspecified)", "values": [{"measurement": "IC50", "setting": "[3]", "result": "> 66 µM (inactive)"}, {"measurement": "AC50", "setting": "[1]", "result": "0.083 µM (active)"}, {"measurement": "IC50", "setting": "[4]", "result": "> 66 µM (inactive)"}]}
{"smiles": "C=C(C)C(=O)OCC(O)COc1ccc(C(C)(C)c2ccc(OCC(O)COC(=O)C(=C)C)cc2)cc1", "note": "(stereo unspecified)", "values": [{"measurement": "AC50", "setting": "[5]", "result": "15 µM (active)"}, {"measurement": "CC50", "setting": "[6]", "result": "> 40 µM (active)"}]}
{"smiles": "CC(C)n1cc(/C=N/Nc2ccc(C(=O)O)cc2)c2ccccc21", "values": [{"measurement": "AC50", "setting": "[1]", "result": "0.192 µM (active)"}, {"measurement": "EC50", "setting": "[7]", "result": "< 0.16 µM (active)"}]}
{"smiles": "Cc1cc(C(=O)N[C@H](c2ccccc2)[C@@]2(C)C[C@@H]2[C@@H](C)C(=O)Nc2ccc3ccccc3c2)n(C)n1", "values": [{"measurement": "CC50", "setting": "[6]", "result": "> 40 µM (active)"}, {"measurement": "AC50", "setting": "[8]", "result": "20 µM (inconclusive)"}]}
{"smiles": "C/C(=N\\Nc1nnc2c3ccccc3n(C)c2n1)c1ccc(C)o1", "values": [{"measurement": "IC50", "setting": "[9]", "result": "> 79 µM (inactive)"}, {"measurement": "EC50", "setting": "[10]", "result": "> 120 µM (not active)"}, {"measurement": "EC50", "setting": "[11]", "result": "17.5 µM (active)"}, {"measurement": "EC50", "setting": "[12]", "result": "71.3 µM (active)"}]}
{"smiles": "O=C(c1ccc(F)cc1)N1CC(=O)N2[C@H](CO)[C@@H](c3ccc(/C=C/c4ccccc4)cc3)[C@@H]2C1", "values": [{"measurement": "AC50", "setting": "[13]", "result": "3.9 µM (active)"}]}
{"smiles": "O=C(NCc1nnc(S)n1-c1ccc(Br)cc1)c1ccc(S(=O)(=O)N2CCCC2)cc1", "values": [{"measurement": "AC50", "setting": "[1]", "result": "6.96 µM (active)"}]}
{"smiles": "COc1cc(CN2CC3(CN(C(=O)CN4CCOCC4)C3)c3c(n(C)c4cc(OC)ccc34)[C@@H]2CO)cc(OC)c1", "values": [{"measurement": "AC50", "setting": "[13]", "result": "6.16 µM (active)"}]}
{"smiles": "O=[N+]([O-])c1c(O)nc(/C=C\\c2cccc(Cl)c2)nc1O", "values": [{"measurement": "AC50", "setting": "[1]", "result": "0.737 µM (active)"}]}
{"smiles": "O=C(C1CC1)N1CC(=O)N2[C@H](CO)[C@@H](c3ccc(C#CCc4ccccc4)cc3)[C@@H]2C1", "values": [{"measurement": "AC50", "setting": "[13]", "result": "5.44 µM (active)"}]}
{"smiles": "C[C@@H]1CCCCO[C@@H](CN(C)Cc2ccccc2)[C@@H](C)CN([C@@H](C)CO)C(=O)c2cc(NS(=O)(=O)c3ccc(Cl)cc3)ccc2O1", "values": [{"measurement": "AC50", "setting": "[14]", "result": "5.43 µM (active)"}, {"measurement": "AC50", "setting": "[15]", "result": "63.2 µM (active)"}]}
{"smiles": "COc1ccc(C(C(O)C(=O)c2c[nH]c3ccccc23)N2CCN(c3ccc(OC)cc3)CC2)cc1", "note": "(stereo unspecified)", "values": [{"measurement": "CC50", "setting": "[6]", "result": "> 40 µM (active)"}]}
{"smiles": "Cc1ccc(NC(=O)CSCC(=O)N2c3ccccc3CCc3ccccc32)cc1", "values": [{"measurement": "EC50", "setting": "[2]", "result": "4.65 µM (active)"}]}
{"smiles": "Cc1ccc(O)c(C(=O)CC(=O)c2ccccc2Cl)c1", "values": [{"measurement": "EC50", "setting": "[16]", "result": "4.15 µM (active)"}, {"measurement": "EC50", "setting": "[17]", "result": "9.81 µM (active)"}, {"measurement": "EC50", "setting": "[18]", "result": "2.52 µM (active)"}, {"measurement": "CC50", "setting": "[6]", "result": "24.4 µM (active)"}, {"measurement": "EC50", "setting": "[19]", "result": "> 160 µM (inactive)"}]}
{"smiles": "COc1ccc2c3c(n(C)c2c1)[C@H](CO)N(C(=O)Nc1ccc(F)cc1)CC31CCN(C(=O)c2cccnc2)CC1", "values": [{"measurement": "AC50", "setting": "[13]", "result": "4.52 µM (active)"}]}
{"smiles": "Cn1cc(C(=O)c2ccc(Cl)cc2Cl)cc1C(=O)NN=C(N)COc1ccccc1", "values": [{"measurement": "EC50", "setting": "[2]", "result": "3.97 µM (active)"}]}
